Test results from article PMC9302676 (Chemsuschem, 2022).

Columns and labels:
P450 BM3 (CYP102A1) [1] = molecular target: P450 BM3 (CYP102A1) (Priestia megaterium, UniProt P14779, N320L/T412V/T437A); assay: biochemical
P450 BM3 (CYP102A1) [2] = molecular target: P450 BM3 (CYP102A1) (Priestia megaterium, UniProt P14779); assay: biochemical
P450 BM3 (CYP102A1) (Priestia megaterium, UniProt P14779), sequence (P14779 whole entry): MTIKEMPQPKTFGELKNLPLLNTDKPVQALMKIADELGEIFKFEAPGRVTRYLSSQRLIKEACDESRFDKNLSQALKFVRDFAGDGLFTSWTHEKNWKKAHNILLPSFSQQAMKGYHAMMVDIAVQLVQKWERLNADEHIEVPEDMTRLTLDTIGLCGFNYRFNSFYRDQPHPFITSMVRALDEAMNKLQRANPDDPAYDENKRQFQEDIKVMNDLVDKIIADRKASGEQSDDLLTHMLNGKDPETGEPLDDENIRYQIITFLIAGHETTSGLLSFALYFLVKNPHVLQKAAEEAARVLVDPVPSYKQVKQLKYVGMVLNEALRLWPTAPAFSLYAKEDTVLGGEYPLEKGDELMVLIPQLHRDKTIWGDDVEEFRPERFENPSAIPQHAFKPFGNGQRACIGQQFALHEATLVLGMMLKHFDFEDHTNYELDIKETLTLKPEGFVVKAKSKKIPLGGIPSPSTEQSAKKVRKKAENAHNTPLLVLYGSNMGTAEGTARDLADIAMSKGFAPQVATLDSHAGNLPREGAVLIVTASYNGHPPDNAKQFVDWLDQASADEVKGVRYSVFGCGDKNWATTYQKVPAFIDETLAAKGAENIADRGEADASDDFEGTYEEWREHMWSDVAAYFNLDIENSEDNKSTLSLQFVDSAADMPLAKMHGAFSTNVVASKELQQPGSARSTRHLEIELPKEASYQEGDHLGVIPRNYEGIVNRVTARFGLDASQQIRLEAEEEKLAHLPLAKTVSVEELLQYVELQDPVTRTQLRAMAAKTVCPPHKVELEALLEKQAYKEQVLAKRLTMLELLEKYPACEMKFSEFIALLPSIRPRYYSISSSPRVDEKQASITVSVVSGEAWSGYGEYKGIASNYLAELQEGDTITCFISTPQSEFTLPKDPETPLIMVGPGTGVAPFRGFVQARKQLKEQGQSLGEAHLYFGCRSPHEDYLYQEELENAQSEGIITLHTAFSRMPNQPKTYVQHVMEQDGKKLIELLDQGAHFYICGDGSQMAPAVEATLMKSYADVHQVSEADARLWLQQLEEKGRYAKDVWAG

P450 BM3 (CYP102A1) (Priestia megaterium, UniProt P14779, N320L/T412V/T437A), sequence (P14779 whole entry N320L/T412V/T437A): as the sequence (P14779 whole entry) above, with N320L, T412V, T437A counted along it

## CC1=CC(=O)CC(C)(C)C1 [α-isophorone]
P450 BM3 (CYP102A1) [1]
  Kd: 6.263 ± 0.047 mM
P450 BM3 (CYP102A1) [2]
  Kd: 6.85 ± 0.079 mM
